Measurements as given in patent US20230339981A1, “KRAS G12D MODULATING COMPOUNDS” (priority 2022, published 2023).

Columns and labels:
GP2D (KRAS G12D) cells = assay: 2D cell viability assay (CellTiter-Glo); format: cell-based; details: GP2d, 96 h, 4 days
Experimental: Example B. 2D Cell Viability Assay
Compounds were tested in a 384-well format for their ability to inhibit the viability of GP2D (KRAS G12D) cells in 2D assays. Compounds were serially diluted (1:3) in DMSO. The LabCyte ECHO Acoustic dispenser system was used to pre-spot assay plates with 200 nL of test molecule per well. 1000 cells/well (40 μL volume per well) in RPMI medium with 10% FBS, and Penicillin-Streptomycin-Glutamine were plated in pre-spotted 384-well plates (Greiner, Catalog #781076) on the BioTEK EL406 liquid dispenser with a 5 μL dispensing cassette (BioTek 7170011). The plates were incubated at 37° C., 5% CO2 for 4 days before addition of CellTiter-Glo (CTG) reagent and measurement of luminescence signal. EC50 values were defined as the compound concentration that causes a 50% decrease in luminescence signal and were calculated using a sigmoidal dose-response model to generate curve fits.

GDP-loaded KRAS G12D = GDP-loaded KRAS G12D (Homo sapiens (Human), UniProt P01116, G12D); assay: KRAS G12D (GDP) biochemical assay (TR-FRET probe displacement); format: binding; details: 2 hours
GDP-loaded KRAS G12D, sequence (P01116-2 other isoform, or with tags, fused parts or gaps G12D): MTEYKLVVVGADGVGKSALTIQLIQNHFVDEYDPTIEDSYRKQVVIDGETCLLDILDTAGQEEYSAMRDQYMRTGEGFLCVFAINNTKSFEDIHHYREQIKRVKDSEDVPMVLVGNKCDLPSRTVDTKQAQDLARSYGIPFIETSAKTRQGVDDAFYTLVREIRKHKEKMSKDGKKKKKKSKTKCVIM
Experimental: Example A. KRAS G12D (GDP) Biochemical Assay
Compounds were tested for binding to GDP-loaded KRAS G12D in a 384-well assay format using a TR-FRET probe displacement assay in buffer consisting of 50 mM Hepes (pH 7.4), 150 mM NaCl, 5 mM MgCl2 and 0.005% Tween-20. […] Compounds were serially diluted (1:3) in DMSO. The LabCyte ECHO Acoustic dispenser system was used to pre-spot the assay plates (384-well Non-Binding Surface plates, Corning, Catalog #3824) with 50 nL of compound. The compounds were pre-incubated with 5 μL of 2× final enzyme concentration for 30 minutes before adding 5 μL of 2× final concentration of Eu-streptavidin and TR-FRET probe (10 μL final reaction volume). The plates were incubated at room temperature for 2 hours before measuring TR-FRET ratio on the Envision plate reader. IC50 values were defined as the compound concentration that causes a 50% decrease in TR-FRET ratio and were calculated using a sigmoidal dose-response model to generate curve fits.

Row | Structure (SMILES) | EC50 (GP2D (KRAS G12D) cells) [nM] | IC50 (GDP-loaded KRAS G12D) [nM]
1 | Oc1cc(-c2nc3c4c(nc(OC[C@@]56CCCN5C[C@H](F)C6)nc4c2F)N2C[C@H]4CC[C@H](N4)[C@H]2CC3)c2c(CC(F)(F)F)c(F)ccc2c1 [Example 50, 6-fluoro-4-((5aR,6S,9R)-1-fluoro-12-(((2R,7aS)-2-fluorotetrahydro-1H-pyrrolizin-7a(5H)-yl)methoxy)-4,5,5a,6,7,8,9,10-octahydro-3,10a,11,13,14-pentaaza-6,9-methanonaphtho[1,8-ab]heptalen-2-yl)-5-(2,2,2-trifluoroethyl)naphthalen-2-ol] | 24 | 3
2 | C#Cc1c(F)ccc2cc(O)cc(-c3nc4c5c(nc(OC[C@@]67CCCN6[C@H](COC(=O)N(C)c6cccc(S(F)(F)(F)(F)F)c6)CC7)nc5c3F)N3C[C@H]5CC[C@H](N5)[C@H]3CO4)c12 [Example 51, ((3S,7aS)-7a-((((5aS,6S,9R)-2-(8-ethynyl-7-fluoro-3-hydroxynaphthalen-1-yl)-1-fluoro-5a,6,7,8,9,10-hexahydro-5H-4-oxa-3,10a,11,13,14-pentaaza-6,9-methanonaphtho[1,8-ab]heptalen-12-yl)oxy)methyl)hexahydro-1H-pyrrolizin-3-yl)methyl methyl(3-(pentafluoro-λ^6-sulfaneyl)phenyl)carbamate] | 98 | 2
3 | C#Cc1c(F)ccc2cc(O)cc(-c3nc4c5c(nc(OC[C@@]67CCCN6C[C@H](F)C7)nc5c3F)N3C[C@H]5CC[C@H](N5)[C@H]3[C@H](C)O4)c12 [Example 53, 5-ethynyl-6-fluoro-4-((5S,5aS,6S,9R)-1-fluoro-12-(((2R,7aS)-2-fluorotetrahydro-1H-pyrrolizin-7a(5H)-yl)methoxy)-5-methyl-5a,6,7,8,9,10-hexahydro-5H-4-oxa-3,10a,11,13,14-pentaaza-6,9-methanonaphtho[1,8-ab]heptalen-2-yl)naphthalen-2-ol] | 2 | 0.1
4 | Oc1cc(-c2nc3c4c(nc(OC[C@@]56CCCN5C[C@H](F)C6)nc4c2F)N2C[C@H]4CC[C@H](N4)[C@H]2CO3)c2c(SC(F)(F)F)c(F)ccc2c1 [Example 54, 6-fluoro-4-((5aS,6S,9R)-1-fluoro-12-(((2R,7aS)-2-fluorotetrahydro-1H-pyrrolizin-7a(5H)-yl)methoxy)-5a,6,7,8,9,10-hexahydro-5H-4-oxa-3,10a,11,13,14-pentaaza-6,9-methanonaphtho[1,8-ab]heptalen-2-yl)-5-((trifluoromethyl)thio)naphthalen-2-ol] | 42 | 3
5 | C#Cc1c(F)ccc2cc(O)cc(-c3nc4c5c(nc(OC[C@@]67CCCN6[C@H](COC(C(F)(F)F)(C(F)(F)F)C(F)(F)F)CC7)nc5c3F)N3C[C@H]5CC[C@H](N5)[C@H]3CO4)c12 [Example 55, 5-ethynyl-6-fluoro-4-((5aS,6S,9R)-1-fluoro-12-(((3S,7aS)-3-(((1,1,1,3,3,3-hexafluoro-2-(trifluoromethyl)propan-2-yl)oxy)methyl)tetrahydro-1H-pyrrolizin-7a(5H)-yl)methoxy)-5a,6,7,8,9,10-hexahydro-5H-4-oxa-3,10a,11,13,14-pentaaza-6,9-methanonaphtho[1,8-ab]heptalen-2-yl)naphthalen-2-ol] | 0.8 | 0.5
6 | C#Cc1c(F)ccc2cc(O)cc(-c3nc4c5c(nc(OC[C@@]67CCCN6C[C@H](OC(C(F)(F)F)(C(F)(F)F)C(F)(F)F)CC7)nc5c3F)N3C[C@H]5CC[C@H](N5)[C@H]3CO4)c12 [Example 56, 5-ethynyl-6-fluoro-4-((5aS,6S,9R)-1-fluoro-12-(((6R,8aS)-6-((1,1,1,3,3,3-hexafluoro-2-(trifluoromethyl)propan-2-yl)oxy)hexahydroindolizine-8a(1H)-yl)methoxy)-5a,6,7,8,9,10-hexahydro-5H-4-oxa-3,10a,11,13,14-pentaaza-6,9-methanonaphtho[1,8-ab]heptalen-2-yl)naphthalen-2-ol] | 50 | 13
7 | C#Cc1c(F)ccc2cc(O)cc(-c3cc4c5c(nc(OC[C@@]67CCCN6C[C@H](F)C7)nc5c3F)N3C[C@H]5CC[C@H](N5)[C@H]3CO4)c12 [Example 57, 5-ethynyl-6-fluoro-4-((5aS,6S,9R)-1-fluoro-13-(((2R,7aS)-2-fluorotetrahydro-1H-pyrrolizin-7a(5H)-yl)methoxy)-5a,6,7,8,9,1O-hexahydro-5H-6,9-epiminoazepino[2′,1′:3,4][1,4]oxazepino[5,6,7-de]quinazolin-2-yl)naphthalen-2-ol] | 28 | 0.6
8 | C#Cc1c(F)ccc2cc(O)cc(-c3nc4c5c(nc(OC[C@@]67CCCN6C[C@H](F)C7)nc5c3F)N3C[C@H]5CC[C@H](N5)[C@H]3[C@@H](C)O4)c12 [Example 61, 5-ethynyl-6-fluoro-4-((5R,5aS,6S,9R)-1-fluoro-12-(((2R,7aS)-2-fluorotetrahydro-1H-pyrrolizin-7a(5H)-yl)methoxy)-5-methyl-5a,6,7,8,9,10-hexahydro-5H-4-oxa-3,10a,11,13,14-pentaaza-6,9-methanonaphtho[1,8-ab]heptalen-2-yl)naphthalen-2-ol] | 520 | 26
9 | C#Cc1c(F)c(F)cc2cccc(-c3nc4c5c(nc(OC[C@@]67CCCN6C[C@H](F)C7)nc5c3F)N3C[C@H]5CC[C@H](N5)[C@H]3CO4)c12 [Example 62, (5aS,6S,9R)-2-(8-ethynyl-6,7-difluoronaphthalen-1-yl)-1-fluoro-12-(((2R,7aS)-2-fluorotetrahydro-1H-pyrrolizin-7a(5H)-yl)methoxy)-5a,6,7,8,9,10-hexahydro-5H-4-oxa-3,10a,11,13,14-pentaaza-6,9-methanonaphtho[1,8-ab]heptalene] | 79 | 7
10 | C#Cc1c(F)ccc2cc(O)cc(-c3nc4c5c(nc(OC[C@@]67CCCN6[C@H](COC(C(F)(F)F)(C(F)(F)F)C(F)(F)F)CC7)nc5c3F)N3C[C@H]5CC[C@H](N5)[C@H]3CC4)c12 [Example 63, 5-ethynyl-6-fluoro-4-((5aR,6S,9R)-1-fluoro-12-(((3S,7aS)-3-(((1,1,1,3,3,3-hexafluoro-2-(trifluoromethyl)propan-2-yl)oxy)methyl)tetrahydro-1H-pyrrolizin-7a(5H)-yl)methoxy)-4,5,5a,6,7,8,9,10-octahydro-3,10a,11,13,14-pentaaza-6,9-methanonaphtho[1,8-ab]heptalen-2-yl)naphthalen-2-ol] | 0.2 | 0.2
11 | C#Cc1c(F)ccc2cc(O)cc(-c3nc4c5c(nc(OC[C@@]67CCCN6C[C@H](F)C7)nc5c3F)N3C[C@H]5CC[C@H](N5)[C@@H]3[C@@H](C)C4)c12 [Example 64, 5-ethynyl-6-fluoro-4-((5S,5aS,6S,9R)-1-fluoro-12-(((2R,7aS)-2-fluorotetrahydro-1H-pyrrolizin-7a(5H)-yl)methoxy)-5-methyl-4,5,5a,6,7,8,9,10-octahydro-3,10a,11,13,14-pentaaza-6,9-methanonaphtho[1,8-ab]heptalen-2-yl)naphthalen-2-ol] | 0.3 | 0.1
12 | Fc1ccc2c(-c3nc4c5c(nc(OC[C@@]67CCCN6C[C@H](F)C7)nc5c3F)N3C[C@H]5CC[C@H](N5)[C@H]3CO4)cccc2c1 [Example 66, (5aS,6S,9R)-1-fluoro-2-(6-fluoronaphthalen-1-yl)-12-(((2R,7aS)-2-fluorotetrahydro-1H-pyrrolizin-7a(5H)-yl)methoxy)-5a,6,7,8,9,10-hexahydro-5H-4-oxa-3,10a,11,13,14-pentaaza-6,9-methanonaphtho[1,8-ab]heptalene] | > 1000 | 860
13 | C#Cc1c(F)ccc2cc(O)cc(-c3nc4c5c(nc(OCC6(CN7CCC[C@@H](F)C7)CC6)nc5c3F)N3C[C@H]5CC[C@H](N5)[C@H]3CC4)c12 [Example 67] | 1 | 0.08
14 | C#Cc1c(F)ccc2cc(O)cc(-c3nc4c5c(nc(OCC6(CN7CCC(F)CC7)CC6)nc5c3F)N3C[C@H]5CC[C@H](N5)[C@H]3CC4)c12 [Example 68, 5-ethynyl-6-fluoro-4-((5aR,6S,9R)-1-fluoro-12-((1-((4-fluoropiperidin-1-yl)methyl)cyclopropyl)methoxy)-4,5,5a,6,7,8,9,10-octahydro-3,10a,11,13,14-pentaaza-6,9-methanonaphtho[1,8-ab]heptalen-2-yl)naphthalen-2-ol] | 0.6 | 0.05
15 | C#Cc1c(F)ccc2cc(O)cc(-c3nc4c5c(nc(OCC6(CN7CCC(C(F)(F)F)CC7)CC6)nc5c3F)N3C[C@H]5CC[C@H](N5)[C@H]3CC4)c12 [Example 69, 5-ethynyl-6-fluoro-4-((5aR,6S,9R)-1-fluoro-12-((1-((4-(trifluoromethyl)piperidin-1-yl)methyl)cyclopropyl)methoxy)-4,5,5a,6,7,8,9,10-octahydro-3,10a,11,13,14-pentaaza-6,9-methanonaphtho[1,8-ab]heptalen-2-yl)naphthalen-2-ol] | 0.6 | 0.1
